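Test compounds were applied to cells in 96-well plates for 48 hours at 5 doses. Here, GI50 denotes the concentration required for 50% inhibition of growth.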 The source made the active and inactive calls. No stated cut-off is given here; in the data, active = GI50 up to about 1.1 µM and inactive = higher.
What was measured:
Assay in all cases: NCI tumour cell line growth inhibition, 48 h
A498 = test system: A498
ACHN = test system: ACHN
CAKI-1 = test system: CAKI-1
CCRF-CEM = test system: CCRF-CEM
COLO 205 = test system: COLO 205
HCC 2998 = test system: HCC 2998
HOP-62 = test system: HOP-62
K562 = test system: K562
MDA-MB-231 = test system: MDA-MB-231
MDA-MB-435 = test system: MDA-MB-435
MDA-N = test system: MDA-N
MOLT-4 = test system: MOLT-4
NCI-H226 = test system: NCI-H226
OVCAR-4 = test system: OVCAR-4
PC-3 = test system: PC-3
SF-539 = test system: SF-539
SN12C = test system: SN12C
SNB-75 = test system: SNB-75

Measured: GI50

CCOC(=O)c1cc2cc(Cc3ccc4[nH]c(C(=O)OCC)cc4c3)ccc2[nH]1
inactive: A498 17.3 µM | ACHN 14.5 µM | CAKI-1 12 µM | CCRF-CEM 57.5 µM | COLO 205 47.3 µM | HCC 2998 91.6 µM | HOP-62 5.14 µM | K562 21.9 µM | MDA-MB-231 15.5 µM | MDA-MB-435 27.2 µM | MDA-N 84.1 µM | MOLT-4 > 100 µM | NCI-H226 18.6 µM | OVCAR-4 6.7 µM | PC-3 34.3 µM | SF-539 13.7 µM | SN12C 23.7 µM | SNB-75 12.2 µM

CC1CC[C@@H](C(C)C)[C@H](Oc2nnc(C3OC(CO)C(O)C3O)o2)C1 (stereo partly drawn)
inactive: A498 > 100 µM | ACHN > 100 µM | CAKI-1 > 100 µM | CCRF-CEM > 100 µM | COLO 205 > 100 µM | HCC 2998 > 100 µM | HOP-62 > 100 µM | K562 > 100 µM | MDA-MB-231 > 100 µM | MDA-MB-435 > 100 µM | MDA-N > 100 µM | MOLT-4 > 100 µM | NCI-H226 > 100 µM | OVCAR-4 > 100 µM | PC-3 > 100 µM | SF-539 > 100 µM | SN12C > 100 µM | SNB-75 > 100 µM

CSC(SC)=C(C#N)C(=O)Nc1ccc(Cl)cc1
inactive: A498 10.6 µM | CAKI-1 22 µM | CCRF-CEM 20.6 µM | COLO 205 18.3 µM | HCC 2998 > 100 µM | K562 25.9 µM | MDA-MB-231 > 100 µM | MDA-MB-435 69.2 µM | MDA-N 74.6 µM | MOLT-4 27.7 µM | NCI-H226 23.6 µM | OVCAR-4 29.9 µM | PC-3 54.2 µM | SF-539 27.7 µM | SN12C > 100 µM | SNB-75 95.3 µM

COC(=O)c1c(O)ccc2c1c1c(n2Cc2ccccc2OC)C(=O)c2ccccc2C1
inactive: A498 > 100 µM | CAKI-1 65.3 µM | CCRF-CEM 24.6 µM | COLO 205 15.5 µM | HOP-62 75.5 µM | K562 70.5 µM | MDA-MB-231 44.1 µM | MDA-MB-435 45.3 µM | MDA-N 77.1 µM | MOLT-4 48.3 µM | NCI-H226 70.3 µM | OVCAR-4 29.7 µM | PC-3 24 µM | SF-539 63.8 µM | SN12C 22.8 µM | SNB-75 61.9 µM
